Where “and” joins values, the source holds several entries; their conditions need not be identical. Equal entries are not always repeated.
How the values were obtained:
[1] = mn = molality of the nth substance listed, in mol/kg; details: 101 kPa, Liquid; for speed of sound: Sing-around technique in a fixed-path interferometer; for mass density: Vibrating tube method
[2] = 101 kPa, Liquid; for speed of sound: Sing-around technique in a fixed-path interferometer; for mass density: Vibrating tube method

CC1(C)SC2C(NC(=O)C(N)c3ccccc3)C(=O)N2C1C(=O)O (stereo not drawn) + O
[1]
Details | mass density, m1 = 0.0005 [kg/m3] | mass density, m1 = 0.001 [kg/m3] | mass density, m1 = 0.002 [kg/m3] | mass density, m1 = 0.004 [kg/m3] | speed of sound, m1 = 0.0005 [m/s] | speed of sound, m1 = 0.001 [m/s] | speed of sound, m1 = 0.002 [m/s] | speed of sound, m1 = 0.004
305.15 K | 995.119 | 995.211 | 995.313 | 995.507 | 1513.6 | 1513.8 | 1514.1 | 1514.2 m/s
310.15 K | 993.425 | 993.515 | 993.607 | 993.805 | 1523.4 | 1523.6 | 1524.1 | 1524 m/s
315.15 K | 991.53 | 991.614 | 991.711 | 991.91 | 1531.9 | 1532 | 1532.4 | 1532.4 m/s and 1531.9 m/s

NCC(=O)O [2-aminoacetic acid] + O
[1]
Details | mass density, m1 = 0.03272 [kg/m3] | mass density, m1 = 0.04933 [kg/m3] | mass density, m1 = 0.0581 [kg/m3] | mass density, m1 = 0.09278 [kg/m3] | mass density, m1 = 0.1392 [kg/m3] | speed of sound, m1 = 0.03272 [m/s] | speed of sound, m1 = 0.04933 [m/s] | speed of sound, m1 = 0.0581 [m/s] | speed of sound, m1 = 0.09278 [m/s] | speed of sound, m1 = 0.1392 [m/s]
305.15 K | 996.158 | 996.664 | 996.929 | – | 999.339 | 1515 | 1515.7 | 1516.1 | 1517.7 | 1519.6
310.15 K | 993.281 | – | 994.038 | 995.054 | – | 1524.9 | 1525.5 | 1525.9 | 1527.3 | 1529
315.15 K | 992.376 | – | 993.122 | 994.122 | 995.416 | 1533.4 | 1534 | 1534.3 | 1535.6 | 1537.2

CC(C)C[C@H](NC(=O)CN)C(=O)O [glycyl-L-leucine] + O
[1]
Details | mass density, m1 = 0.03308 [kg/m3] | mass density, m1 = 0.05972 [kg/m3] | mass density, m1 = 0.09457 [kg/m3] | mass density, m1 = 0.1115 [kg/m3] | speed of sound, m1 = 0.03308 [m/s] | speed of sound, m1 = 0.05972 [m/s] | speed of sound, m1 = 0.09457 [m/s] | speed of sound, m1 = 0.1115 [m/s]
305.15 K | 996.762 | 998.038 | 999.652 | 1000.42 | 1518.1 | 1521.8 | 1526.8 | 1529.1
310.15 K | 993.879 | 995.132 | 996.722 | 997.479 | 1528 | 1531.6 | 1536.3 | 1538.6
315.15 K | 992.968 | 994.198 | 995.757 | 996.494 | 1536.5 | 1539.9 | 1544.4 | 1546.6

NCC(=O)NCC(=O)O [glycylglycine] + O
[1]
Details | mass density, m1 = 0.01976 [kg/m3] | mass density, m1 = 0.03098 [kg/m3] | mass density, m1 = 0.06804 [kg/m3] | mass density, m1 = 0.08258 [kg/m3] | mass density, m1 = 0.1196 [kg/m3] | speed of sound, m1 = 0.01976 [m/s] | speed of sound, m1 = 0.03098 [m/s] | speed of sound, m1 = 0.06804 [m/s] | speed of sound, m1 = 0.08258 [m/s] | speed of sound, m1 = 0.1196 [m/s]
305.15 K | 996.227 | 996.841 | 998.809 | 999.555 | 1001.4 | 1515 | 1515.8 | 1518.5 | 1519.5 | 1522.1
310.15 K | 993.362 | 993.969 | 995.921 | 996.662 | 998.494 | 1524.9 | 1525.7 | 1528.1 | 1529.1 | 1531.5
315.15 K | 992.463 | 993.064 | 994.996 | 995.732 | 997.528 | 1533.4 | 1534.1 | 1536.3 | 1537.2 | 1539.4

O [water]
[2]
Details | mass density [kg/m3] | speed of sound [m/s]
305.15 K | 995.132 | 1513.5
310.15 K | 992.274 | 1523.5
315.15 K | 991.385 | 1532.2

O [water] + CC(C)C[C@H](NC(=O)CN)C(=O)O
[1], m2 = 0
Details | mass density [kg/m3] | speed of sound [m/s]
305.15 K | 995.132 | 1513.5
310.15 K | 992.274 | 1523.5
315.15 K | 991.385 | 1532.2

O [water] + NCC(=O)NCC(=O)O
[1], m2 = 0
Details | mass density [kg/m3] | speed of sound [m/s]
305.15 K | 995.132 | 1513.5
310.15 K | 992.274 | 1523.5
315.15 K | 991.385 | 1532.2

O [water] + NCC(=O)O
[1], m2 = 0
Details | mass density [kg/m3] | speed of sound [m/s]
305.15 K | 995.132 | 1513.5
310.15 K | 992.274 | 1523.5
315.15 K | 991.385 | 1532.2

From the NIST ThermoML archive (doi:10.1016/j.tca.2012.10.018)
